Results on 2 molecules are retold here after paper PMC5378332, “Molecular actions of two synthetic brassinosteroids, iso-carbaBL and 6-deoxoBL, which cause altered physiological activities between Arabidopsis and rice” (PLoS ONE, 2017).

Assay [1] concerns the target T1, rice BRI1 LRR17-ID-LRR18 (Oryza sativa, UniProt Q942F3).
T1 construct: extracellular LRR17-island domain-LRR18 fragment, amino acids 484-600; N-terminal GST fusion from pGEX6P-1, GST kept; glutathione-Sepharose purified
T1 sequence (Q942F3 484-600): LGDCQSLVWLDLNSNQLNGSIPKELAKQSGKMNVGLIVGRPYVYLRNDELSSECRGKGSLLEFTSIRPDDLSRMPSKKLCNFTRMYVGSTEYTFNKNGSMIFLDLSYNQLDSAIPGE
Nature of the assay: competition with BPCS photoaffinity crosslinking, anti-biotin immunoblot. It counts as binding. The following applies: dose-dependent competition; GST-normalised. (Immunoblotting shows a protein as a band on a membrane.)

Assay [2] deals with T2, Arabidopsis BRI1 LRR21-ID-LRR22 (Arabidopsis thaliana, UniProt O22476).
T2 construct: extracellular LRR21-island domain-LRR22 fragment, amino acids 556-673; N-terminal GST fusion from pGEX6P-1, GST kept; glutathione-Sepharose purified
T2 sequence (O22476 556-673): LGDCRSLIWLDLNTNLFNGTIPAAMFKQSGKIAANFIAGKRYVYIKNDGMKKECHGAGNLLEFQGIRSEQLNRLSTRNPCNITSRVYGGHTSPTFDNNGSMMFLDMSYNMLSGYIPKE
The assay is described as above. The settings on record: dose-dependent competition; GST-normalised. It counts as binding.

With `CC(C)[C@H](C)[C@@H](O)[C@H](O)[C@@H](C)[C@H]1CC[C@H]2[C@@H]3COC(=O)[C@H]4C[C@H](O)[C@H](O)C[C@]4(C)[C@H]3CC[C@]12C` [BL, (22R,23R,24S)-2α,3α,22,23-tetrahydroxy-24-methyl-B-homo7-oxa-5α-cholestan-6-one], the “competition with BPCS photoaffinity crosslinking, anti-biotin immunoblot” value in assay [1] is “BL, the positive control, inhibited the binding of BPCS to both Arabidopsis and rice BRI1”.

For the molecule `CC(C)[C@H](C)[C@@H](O)[C@H](O)[C@@H](C)[C@H]1CC[C@H]2[C@@H]3CC(=O)C[C@H]4C[C@@H](O)[C@@H](O)C[C@]4(C)[C@H]3CC[C@]12C` [iso-carbaBL], the “competition with BPCS photoaffinity crosslinking, anti-biotin immunoblot” value is “decreased the binding of BPCS not only to Arabidopsis BRI1, but also to rice BRI1” in assay [1] and “decreased the binding of BPCS not only to Arabidopsis BRI1, but also to rice BRI1” in assay [2].
